In PubChem BioAssay AID977628 (Broad Institute, 2014):
Records with an inconclusive call do not appear. The source made the active and inactive calls.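 The calls were made as follows: active = compound lowering the normal-ribosome reporter at least twice as much as the humanized-ribosome reporter, growth loss under a set limit; inconclusive = no clear call, values can overlap the other calls; inactive = the rest.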

Legend:
Experiment in all cases: growth of wild-type and h24-humanized E. coli strains – h24 mutant RFP vs wild-type GFP, cherry-pick, dose response (AID 977628)
[1] = tested on: E. coli h24 humanized mutant RFP strain growth, fluorescence, 24 h
[2] = tested on: E. coli WT GFP strain growth, fluorescence, 24 h
[3] = tested on: E. coli mixed WT/h24 culture total growth, OD600, 24 h

| Structure (SMILES) | AC50 [1] | AC50 [2] | AC50 [3] |
| --- | --- | --- | --- |
| Nc1ccccc1Sc1ccc(C(F)(F)F)cc1[N+](=O)[O-] | > 100 µM | > 100 µM (inactive) | 52.3 µM |
| Cc1cccc(S(=O)(=O)Nc2ccc(-c3cn4ccccc4n3)cc2)c1 | > 100 µM | > 100 µM (inactive) | 29.7 µM |
| CSc1nnnn1-c1ccc(Cl)cc1 | > 100 µM |  | > 100 µM |
| O=C(O)CCSc1nc2ccccc2n1-c1ccccc1 | 29.2 µM | > 100 µM (inactive) | 36.4 µM |
| CCc1cccc(NC(=O)CCC(=O)N2CCSc3ccccc32)c1 | > 100 µM | > 100 µM (inactive) | 41.7 µM |
| O=C(COC(=O)C1CC2C=CC1C2)Nc1ccc([N+](=O)[O-])cc1 (configuration not stated) | > 100 µM |  | > 100 µM |
| Cc1cc(C)n2nc(C(=O)Nc3cccc(S(=O)(=O)N(C)c4ccccc4)c3)nc2n1 | > 100 µM | > 100 µM (inactive) | > 100 µM |
| c1ccc(-c2nc(-c3cccnc3)cs2)cc1 | > 100 µM | > 100 µM (inactive) | > 100 µM |
| O=S1(=O)c2ccc(Br)cc2OCCC2CCCCN21 (configuration not stated) | > 100 µM | > 100 µM (inactive) | > 100 µM |
| COCc1ccc(C(=O)N2CCCC(C(=O)c3ccc(Cl)cc3C)C2)o1 (configuration not stated) | > 100 µM |  | > 100 µM |
| Cc1ccccc1-c1nc(CS(=O)(=O)CC(=O)N2CCCCC2)c(C)o1 | > 100 µM |  | > 100 µM |
| CCN(C(=O)CSc1cc(C)c2ccc(OC)cc2n1)C1CCS(=O)(=O)C1 (configuration not stated) | > 100 µM |  | > 100 µM |
| Cc1oc(-c2ccc(-c3ccccc3)cc2)nc1CN(C)C1CCOC1 (configuration not stated) | > 100 µM | > 100 µM (inactive) | 49.9 µM |
| CCc1cc2cc(OC)ccc2nc1SCC(=O)Nc1cc(OC)c(OC)cc1C(=O)O | > 100 µM |  | > 100 µM |
| CCOc1ccc(NC(=O)CN(C)CC(=O)Nc2ccc(Br)cc2F)cc1OCC | > 100 µM | > 100 µM (inactive) | > 100 µM |
| CC(C)CNC(=O)c1cccc(NC(=O)C(C)Oc2ccccc2)c1 (configuration not stated) | > 100 µM |  | > 100 µM |
| COC(=O)c1ccsc1NC(=O)c1cccc(OC)c1 | > 100 µM |  | > 100 µM |
| COC(C(=O)Nc1ccnn1C1CCN(Cc2ccc(Cl)s2)CC1)c1ccccc1 (configuration not stated) | > 100 µM |  | > 100 µM |
| CCn1cc(Br)c(C(=O)Nc2ccc(C(=O)OC(C)C)cc2)n1 | 2.96 µM | > 100 µM (inactive) | 19.9 µM |
| CCCCNC(=O)C[C@@H]1C[C@@]2(C(=O)OC)CCCCC=C2N(Cc2ccccc2)C1=O | > 100 µM | > 100 µM (inactive) | > 100 µM |
| O=C(NCCc1ccccc1)c1ccc2c(c1)S(=O)(=O)c1ccccc1C2=O | > 100 µM | > 100 µM (inactive) |  |

| Structure (SMILES) | AC50 [1] | AC50 [2] | AC50 [3] |
| --- | --- | --- | --- |
| COc1cc2cc(C(=O)Nc3ccc4c(c3)OCCO4)[nH]c2cc1OC | > 100 µM |  | > 100 µM |
| Cc1ccc(NC(=O)c2ccc(NCCCN3CCC(C)CC3)c([N+](=O)[O-])c2)cc1F | 11.1 µM | > 100 µM (inactive) |  |
| Cc1cccc(CSCC(=O)N2CCN(S(=O)(=O)c3ccccc3C#N)CC2)c1 | > 100 µM | > 100 µM (inactive) |  |
| COc1ccc(NC(=O)c2nc[nH]c2C(=O)N(C)Cc2ccccc2)cc1 | > 100 µM | > 100 µM (inactive) |  |
| Cc1nnc2sc(SCC(=O)Nc3ccc(Br)cc3)nn2c1=O | > 100 µM | > 100 µM (inactive) | > 100 µM |
| O=C(Nc1cccc(Oc2ccc3c(c2)C(=O)NC3=O)c1)c1cccs1 | > 100 µM | > 100 µM (inactive) |  |
| CC(=O)NS(=O)(=O)c1ccc(NC(=O)COc2ccc(C(=O)c3ccccc3)cc2)cc1 | > 100 µM | > 100 µM (inactive) |  |
| Nc1[nH]c(C(=O)c2ccccc2)c(-c2ccc3c(c2)OCO3)c1C(=O)NCCc1c[nH]c2ccccc12 | > 100 µM | > 100 µM (inactive) | > 100 µM |
| Clc1ccc2nc(CN3CCCc4ccccc43)cn2c1 | > 100 µM | > 100 µM (inactive) |  |
| O=C(NCCC1=CCCCC1)c1ccc(Cl)c(S(=O)(=O)Nc2ccccc2)c1 | > 100 µM | > 100 µM (inactive) |  |
| Cc1ccccc1-n1ncc2c(SCC(=O)N3c4ccccc4CC3C)ncnc21 (configuration not stated) | > 100 µM | > 100 µM (inactive) |  |
| N#Cc1ccsc1NC(=O)CSc1nnnn1-c1ccc(O)cc1 | > 100 µM | > 100 µM (inactive) |  |
| CNC(=O)c1ccsc1NC(=O)c1ccc2c(c1)CCCC2 | 6.81 µM | > 100 µM (inactive) | > 100 µM |
| O=C(Nc1ccc(S(=O)(=O)N2CCOCC2)cc1)c1ccc([N+](=O)[O-])o1 | 50.9 µM | > 100 µM (inactive) |  |
| COc1ccccc1C(=O)Nc1cccc2cccnc12 | 10.2 µM | > 100 µM (inactive) | > 100 µM |
| Cc1cc(C)cc(NC(=O)c2cccc(NC(=O)c3ccco3)c2)c1 | > 100 µM | > 100 µM (inactive) |  |
| CCc1cc(C(=O)c2ccc(OC)cc2)c(NC(=O)CCC(=O)O)s1 | 49 µM | > 100 µM (inactive) | 50.9 µM |
| COc1ccc2cc(CO)c3cc(OC)c(OC)cc3c2c1 | > 100 µM | > 100 µM (inactive) | > 100 µM |
| Cc1cc(C(=O)c2ccc3ccccc3c2)c(C)o1 | > 100 µM | > 100 µM (inactive) |  |
| NS(=O)(=O)c1cccc(NC(=O)c2cccc(-c3ccc(O)cc3)c2)c1 | > 100 µM | > 100 µM (inactive) | 50.8 µM |
| COc1cc(NC(=O)COC(=O)CC(C)(C)C)c(C)cc1[N+](=O)[O-] | > 100 µM | > 100 µM (inactive) | > 100 µM |

| Structure (SMILES) | AC50 [1] | AC50 [2] | AC50 [3] |
| --- | --- | --- | --- |
| O=C1C(c2ccccc2)c2ccccc2N1Cc1ccccc1 (configuration not stated) | > 100 µM | > 100 µM (inactive) |  |
| COc1ccccc1CNC(=O)CN1C(=O)NC(c2ccccc2)(c2ccccc2)C1=O | > 100 µM | > 100 µM (inactive) | > 100 µM |
| CCCCCc1nnc(NC(=O)C2COc3ccccc3O2)s1 (configuration not stated) | > 100 µM |  | > 100 µM |
| CCCN(Cc1ccco1)S(=O)(=O)c1ccc(OC)c(OC)c1 | > 100 µM |  | > 100 µM |
| COc1ccc(CNC(=O)CSCc2c(F)cccc2Cl)cc1 | > 100 µM | > 100 µM (inactive) |  |
| Cc1nc(C)c(-c2ccn(S(=O)(=O)c3ccc(Cl)cc3)n2)o1 | > 100 µM | > 100 µM (inactive) | 45.5 µM |
| O=C(Cc1ccc(NC(=O)C2CCCN(C(=O)CCc3ccccc3)C2)cc1)Nc1cccc(C(=O)N2CCCC2)c1 (configuration not stated) | > 100 µM | > 100 µM (inactive) |  |
| C[C@]12C(=O)N(c3ccc(F)cc3)C(=O)N1[C@@H]1c3ccccc3OC[C@@H]1[C@H]2c1ccccc1 | 5.36 µM |  | > 100 µM |
| CCOc1ccc(S(=O)(=O)N(C)c2ccc(OCC(=O)Nc3ccc4[nH]c(=O)[nH]c4c3)cc2)cc1 | > 100 µM | > 100 µM (inactive) |  |
| O=C1c2cccc(OCC(=O)N3CCCc4ccccc43)c2CCN1Cc1cccnc1 | 9.06 µM | > 100 µM (inactive) | 45.8 µM |
| Cc1nn(C)cc1NC(=O)C[C@@H]1CC[C@@H]2[C@@H](COc3ccc(NC(=O)C4CCC4)cc3C(=O)N2C)O1 | 3.9 µM | > 100 µM (inactive) |  |
| CC(=O)Nc1ccc2nc3ccccc3nc2c1 | > 100 µM | > 100 µM (inactive) |  |
| COc1ccc2oc(C(=O)NCc3ccco3)c(C)c2c1 | > 100 µM | > 100 µM (inactive) |  |
| CCc1ccn2cc(-c3ccc4c(c3)OCO4)nc2c1 | > 100 µM | > 100 µM (inactive) | > 100 µM |
| COc1ccc(NC(=O)c2cccnc2SC)cc1S(=O)(=O)N1CCCCC1 | > 100 µM | > 100 µM (inactive) | > 100 µM |
| COc1ccccc1-c1nnc(C2CCN(S(=O)(=O)c3cccc([N+](=O)[O-])c3)CC2)o1 | > 100 µM | > 100 µM (inactive) | > 100 µM |
| COc1ccc(NC(=O)c2sccc2-n2cccc2)cc1 | > 100 µM | > 100 µM (inactive) |  |
| O=C(O)c1cc(S(=O)(=O)N2CCN(C(c3ccccc3)c3ccccc3)CC2)ccc1Cl | > 100 µM | > 100 µM (inactive) | > 100 µM |
| Cc1ccc(C(=O)Nc2cccc3[nH]c(C(F)(F)F)nc23)cc1 | > 100 µM | > 100 µM (inactive) | > 100 µM |
| C=CCNc1ccc2c(c1)OC[C@H](CC(C)C)NS2(=O)=O | > 100 µM | > 100 µM (inactive) | > 100 µM |
